Source: PMC4756352, “Atypical natural killer T-cell receptor recognition of CD1d–lipid antigens” (Nature Communications, 2016)

Assays:
human CD1d [1] = molecular target: T1, human CD1d (Homo sapiens, UniProt P15813); assay: SPR, lipid-loaded CD1d immobilised, TCR injected; conditions: lipid loaded at 3-6 fold molar excess overnight; binding seen through TCR recognition; HBS-T pH 7.4, 25 °C
T1 construct: soluble CD1d with C-terminal BirA biotin ligase tag and B2M, baculovirus/High Five insect cells, IMAC and gel filtration; biotinylated; with Beta-2-microglobulin
T1 sequence (P15813 20-295 limits assumed): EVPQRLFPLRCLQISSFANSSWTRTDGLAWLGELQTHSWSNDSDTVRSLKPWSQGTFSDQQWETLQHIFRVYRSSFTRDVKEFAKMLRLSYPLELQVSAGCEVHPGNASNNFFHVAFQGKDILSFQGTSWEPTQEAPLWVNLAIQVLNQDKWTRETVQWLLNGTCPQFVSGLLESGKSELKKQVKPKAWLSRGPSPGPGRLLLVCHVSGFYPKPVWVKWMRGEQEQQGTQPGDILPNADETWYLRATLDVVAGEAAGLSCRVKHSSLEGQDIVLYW
T1 sequence (P61769 21-119 partner): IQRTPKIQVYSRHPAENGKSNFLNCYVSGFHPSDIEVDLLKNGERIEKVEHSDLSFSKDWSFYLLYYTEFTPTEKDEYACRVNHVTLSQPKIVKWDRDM

human CD1d [2] = molecular target: T1, human CD1d; assay: lipid-loaded CD1d tetramer staining of TCR-transduced Jurkat cells; type: cell-based; conditions: binding seen through TCR recognition (9B1, 9B2 lines)

SMILES | SPR, lipid-loaded CD1d immobilised, TCR injected (human CD1d [1]) | lipid-loaded CD1d tetramer staining of TCR-transduced Jurkat cells (human CD1d [2])
CCCCCCCCCCCCCCCCCCCCCCCCCC(=O)N[C@@H](CO[C@H]1O[C@H](CO)C[C@H](O)[C@H]1O)[C@H](O)CCCCCCCCCCCCCCC | no negative impact of this analogue on NKT15 or 9B2 TCR binding | –
CCCCCCCCCCCCCCCCCCCCCCCCCC(=O)N[C@@H](CO[C@H]1O[C@H](CO)[C@H](O)C[C@H]1O)[C@H](O)CCCCCCCCCCCCCCC [3′-deoxy-α-GalCer] | affinity of the 9C1 and 9B2 TCRs towards CD1d-3′-deoxy-α-GalCer | –
CCCCCCCCCCCCCCCCCCCCCCCCCC(=O)N[C@@H](CO[C@H]1O[C@H](CO)[C@@H](O)[C@H](O)[C@H]1O)[C@H](O)[C@H](O)CCCCCCCCCCCCCC [α-GlcCer (C26:0)] | yet was well-tolerated by NKT15 TCR | –
CCCCCCCCCCCCC/C=C/[C@@H](O)[C@H](CO[C@@H]1O[C@H](CO)[C@H](O)[C@H](O)[C@H]1O)NC(=O)CCCCCCCCCCC [β-GalCer (C12)] | – | These 9B1 and 9B2 TCRs also reacted to a lesser extent with β-GalCer
CCCCCCCC/C=C\CCCCCCCCCCCCCC(=O)N[C@@H](CO[C@@H]1O[C@H](CO)[C@@H](O)[C@H](O)[C@H]1O)[C@H](O)/C=C/CCCCCCCCCCCCC [β-GlcCer (C24:1)] | – | we detected clear reactivity of Jurkat.9B1 and Jurkat.9B2 cell lines to β-GlcCer
